# Laboratory results reported in PubChem BioAssay (NCI).
#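 48-hour exposure; five concentrations; linearly interpolated endpoints. TGI is the concentration that stops growth completely.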
# How the values were obtained:
# Test in all cases: NCI tumour cell line growth inhibition, 48 h
# TK-10 renal = test system: TK-10 renal
# EKVX NSCLC = test system: EKVX NSCLC
# CCRF-CEM leukemia = test system: CCRF-CEM leukemia
# SW-620 colon = test system: SW-620 colon
# CAKI-1 renal = test system: CAKI-1 renal
# T-47D breast = test system: T-47D breast
# KM12 colon = test system: KM12 colon
# OVCAR-4 ovarian = test system: OVCAR-4 ovarian
# HOP-92 NSCLC = test system: HOP-92 NSCLC
# NCI-H23 lung = test system: NCI-H23 lung
# DU-145 prostate = test system: DU-145 prostate
# HT29 colon = test system: HT29 colon
# UACC-257 melanoma = test system: UACC-257 melanoma
# PC-3 prostate = test system: PC-3 prostate
# UO-31 renal = test system: UO-31 renal
# MOLT-4 leukemia = test system: MOLT-4 leukemia
# SF-268 CNS = test system: SF-268 CNS
# SF-539 CNS = test system: SF-539 CNS
# ACHN renal = test system: ACHN renal
# NCI-H460 lung = test system: NCI-H460 lung
# OVCAR-8 ovarian = test system: OVCAR-8 ovarian
# SNB-19 CNS = test system: SNB-19 CNS
# SNB-75 CNS = test system: SNB-75 CNS
# OVCAR-5 ovarian = test system: OVCAR-5 ovarian
# IGROV1 ovarian = test system: IGROV1 ovarian
# HOP-62 NSCLC = test system: HOP-62 NSCLC
# HCC-2998 colon = test system: HCC-2998 colon
# SN12C renal = test system: SN12C renal
# MDA-MB-435 = test system: MDA-MB-435
# LOX IMVI melanoma = test system: LOX IMVI melanoma
# NCI/ADR-RES ovarian = test system: NCI/ADR-RES ovarian
# RXF 393 renal = test system: RXF 393 renal
# BT-549 breast = test system: BT-549 breast
# HCT-15 colon = test system: HCT-15 colon
# SR leukemia = test system: SR leukemia
# HCT-116 colon = test system: HCT-116 colon
# OVCAR-3 ovarian = test system: OVCAR-3 ovarian
# UACC-62 melanoma = test system: UACC-62 melanoma
# SK-MEL-2 melanoma = test system: SK-MEL-2 melanoma
# RPMI-8226 leukemia = test system: RPMI-8226 leukemia
# M14 melanoma = test system: M14 melanoma
# SK-MEL-28 melanoma = test system: SK-MEL-28 melanoma
# NCI-H226 lung = test system: NCI-H226 lung
# COLO 205 colon = test system: COLO 205 colon
# HL-60(TB) leukemia = test system: HL-60(TB) leukemia
# SF-295 CNS = test system: SF-295 CNS
# NCI-H522 lung = test system: NCI-H522 lung
# U251 CNS = test system: U251 CNS
# K-562 leukemia = test system: K-562 leukemia
# MALME-3M melanoma = test system: MALME-3M melanoma
# MCF7 breast = test system: MCF7 breast
# 786-0 renal = test system: 786-0 renal
# SK-MEL-5 melanoma = test system: SK-MEL-5 melanoma
# MDA-N = test system: MDA-N
structure (smiles),measurement,setting,value
O=C(NNCc1ccc(Cl)cc1)Nc1cccc2ccccc12,TGI,TK-10 renal,> 100 µM
same,TGI,EKVX NSCLC,> 100 µM
same,TGI,CCRF-CEM leukemia,> 100 µM
same,TGI,SW-620 colon,> 100 µM
same,TGI,CAKI-1 renal,> 100 µM
same,TGI,T-47D breast,> 100 µM
same,TGI,KM12 colon,> 100 µM
same,TGI,OVCAR-4 ovarian,> 100 µM
same,TGI,HOP-92 NSCLC,> 100 µM
same,TGI,NCI-H23 lung,> 100 µM
same,TGI,DU-145 prostate,> 100 µM
same,TGI,HT29 colon,> 100 µM
same,TGI,UACC-257 melanoma,> 100 µM
same,TGI,PC-3 prostate,> 100 µM
same,TGI,UO-31 renal,> 100 µM
same,TGI,MOLT-4 leukemia,> 100 µM
same,TGI,SF-268 CNS,> 100 µM
same,TGI,SF-539 CNS,> 100 µM
same,TGI,ACHN renal,> 100 µM
same,TGI,NCI-H460 lung,> 100 µM
same,TGI,OVCAR-8 ovarian,> 100 µM
same,TGI,SNB-19 CNS,> 100 µM
same,TGI,SNB-75 CNS,> 100 µM
same,TGI,OVCAR-5 ovarian,> 100 µM
same,TGI,IGROV1 ovarian,> 100 µM
same,TGI,HOP-62 NSCLC,> 100 µM
same,TGI,HCC-2998 colon,> 100 µM
same,TGI,SN12C renal,> 100 µM
same,TGI,MDA-MB-435,> 100 µM
same,TGI,LOX IMVI melanoma,> 100 µM
same,TGI,NCI/ADR-RES ovarian,> 100 µM
same,TGI,RXF 393 renal,> 100 µM
same,TGI,BT-549 breast,> 100 µM
same,TGI,HCT-15 colon,> 100 µM
same,TGI,SR leukemia,> 100 µM
same,TGI,HCT-116 colon,> 100 µM
same,TGI,OVCAR-3 ovarian,> 100 µM
same,TGI,UACC-62 melanoma,> 100 µM
same,TGI,SK-MEL-2 melanoma,> 100 µM
same,TGI,RPMI-8226 leukemia,84.4 µM
same,TGI,M14 melanoma,> 100 µM
same,TGI,SK-MEL-28 melanoma,> 100 µM
same,TGI,NCI-H226 lung,> 100 µM
same,TGI,COLO 205 colon,> 100 µM
same,TGI,HL-60(TB) leukemia,> 100 µM
same,TGI,SF-295 CNS,> 100 µM
same,TGI,NCI-H522 lung,> 100 µM
same,TGI,U251 CNS,> 100 µM
same,TGI,K-562 leukemia,> 100 µM
same,TGI,MALME-3M melanoma,> 100 µM
same,TGI,MCF7 breast,> 100 µM
same,TGI,786-0 renal,> 100 µM
same,TGI,SK-MEL-5 melanoma,> 100 µM
same,TGI,MDA-N,> 100 µM
